Measurements as given in article PMC4138103 (PLoS ONE, 2014).
Where two headings read alike, the source gives them in different places.

System: Sprague-Dawley rats
Assay: Retinoid analyses in liver, serum and kidney
Format: in vivo, Rattus norvegicus
Design: key to Kidney Retinyl esters, Dose response / Liver All-trans RA, Dose response / Kidney All-trans RA, Dose response / Serum Retinol, Dose response: D: significant dose response (for results, see Table 2); T: significant trend
Settings: for Emax: Rattus norvegicus; for Kidney All-trans RA / Kidney Retinol / Kidney Retinyl esters / Liver 9-cis-4o-13,14-dh RA / Liver All-trans RA / Liver Retinol / Liver Retinyl esters: group mean, N=5
Experimental: Retinoids in liver, serum, and kidney were analyzed according to Schmidt et al.. The polar retinoids 9-cis-retinoic acid (9-cis-RA), 13-cis-retinoic acid (13-cis-RA), 13-cis-4-oxo-retinoic acid (13-cis-4-o-RA), 9-cis-4-oxo-13,14-dihydro-retinoic acid (9-cis-4-o-13,14-dh-RA), all-trans retinoic acid (all-trans RA) and the apolar retinoids retinol and retinyl palmitate were extracted by a single liquid-extraction, separated from each other via solid-phase extraction using an aminopropyl phase, and then injected onto two different HPLC systems that were coupled with UV detection. […] The limits of detection (LOD) for all-trans RA and 9c-4o-13,14-dh-RA were 0.7 and 1.0 pmol/g tissue, and 0.3 and 0.6 pmol/ml serum, respectively. Retinol and retinyl palmitate were separated on a J'sphere ODS-H80 (4.6×150 mm, 4 µm particle size) obtained from YMC (Schermbeck, Germany), and were detected at 325 nm. The LOD for retinol and retinyl palmitate were 5.6 and 5.5 pmol/g tissue, and 4.2 and 4.2 pmol/ml serum, respectively.
Data were also analyzed using the BMD method, which is based on dose-response modeling of the full data set using a nested family of exponential and Hill models. The analyses were done on data of males and females combined, using sex as a covariate. […] In that case, different Critical Effect Doses (CEDs) and CEDs at the lowest bound of the confidence interval (CED-L) were generated for each sex. If no difference between sexes is detected, a CED and CED-Ls for the combined data is generated. However, this was also done if the curve fits are close, and separate analyses for males and females were then performed manually. CEDs and CED-Ls were calculated at the predefined Critical Effect Size (CES) of 5% (EFSA standard) or 10%.

[1] = females, total dose 0-1700 mg/kg bw
[2] = females, total dose 10 mg/kg bw
[3] = females, total dose 30 mg/kg bw
[4] = females, total dose 100 mg/kg bw
[5] = females, total dose 300 mg/kg bw
[6] = females, total dose 1000 mg/kg bw
[7] = females, total dose 1700 mg/kg bw

## Clc1cc(Cl)c(-c2cc(Cl)c(Cl)c(Cl)c2Cl)cc1Cl [PCB 180, 2,2′,3′,4,4′,5,5′-heptachlorobiphenyl]
F, model E4, controls vs high dose according to the fitted model, read-out: Maximum response, Liver 9c-4o-13,14-dh-RA amount
  Emax: -70.3%
F, model E4, controls vs high dose according to the fitted model, read-out: Maximum response, Liver 9c-4o-13,14-dh-RA concentration
  Emax: -78.2%
females, controls vs high dose, fitted model, read-out: Kidney all-trans RA amount, Maximum response
  Emax: 16.5%
females, controls vs high dose, fitted model, read-out: Kidney all-trans RA concentration, Maximum response
  Emax: 19.9%
females, controls vs high dose, fitted model, read-out: Kidney retinol amount, Maximum response
  Emax: 26.9%
females, controls vs high dose, fitted model, read-out: Kidney retinol concentration, Maximum response
  Emax: 27.8%
females, controls vs high dose, fitted model, read-out: Liver 9c-4o-13,14-dh-RA amount, Maximum response
  Emax: -70.3%
females, controls vs high dose, fitted model, read-out: Liver 9c-4o-13,14-dh-RA conc., Maximum response
  Emax: -78.2%
females, controls vs high dose, fitted model, read-out: Liver retinol concentration, Maximum response
  Emax: -42.9%
females, controls vs high dose, fitted model, read-out: Liver retinyl esters amount, Maximum response
  Emax: -29%
females, controls vs high dose, fitted model, read-out: Liver retinyl esters concentration, Maximum response
  Emax: -50.9%
females, controls vs high dose, fitted model, read-out: Serum retinol concentration, Maximum response
  Emax: 23%
males, controls vs high dose, fitted model, read-out: Kidney retinol amount, Maximum response
  Emax: 50.4%
males, controls vs high dose, fitted model, read-out: Kidney retinol concentration, Maximum response
  Emax: 52%
males, controls vs high dose, fitted model, read-out: Kidney retinyl esters amount, Maximum response
  Emax: 260%
males, controls vs high dose, fitted model, read-out: Kidney retinyl esters concentration, Maximum response
  Emax: 254%
males, controls vs high dose, fitted model, read-out: Liver all-trans RA amount, Maximum response
  Emax: 93%
males, controls vs high dose, fitted model, read-out: Liver all-trans RA concentration, Maximum response
  Emax: 21%
males, controls vs high dose, fitted model, read-out: Liver retinol amount, Maximum response
  Emax: -18.1%
males, controls vs high dose, fitted model, read-out: Liver retinol concentration, Maximum response
  Emax: -46.8%
males, controls vs high dose, fitted model, read-out: Liver retinyl esters amount, Maximum response
  Emax: -45.2%
males, controls vs high dose, fitted model, read-out: Liver retinyl esters concentration, Maximum response
  Emax: -62.8%
Model E2, controls vs high dose according to the fitted model, read-out: Maximum response, Kidney retinol amount
  Emax: 49%
Model E2, controls vs high dose according to the fitted model, read-out: Maximum response, Kidney retinol concentration
  Emax: 51.9%
Model E2, controls vs high dose according to the fitted model, read-out: Maximum response, Liver all-trans RA amount
  Emax: 92.7%
Model E2, controls vs high dose according to the fitted model, read-out: Maximum response, Liver all-trans RA concentration
  Emax: 20.7%
Model E2, controls vs high dose according to the fitted model, read-out: Maximum response, Liver retinol amount
  Emax: -18.5%
Model E2, controls vs high dose according to the fitted model, read-out: Maximum response, Liver retinyl esters amount
  Emax: -45.7%
Model E4, controls vs high dose according to the fitted model, read-out: Maximum response, Kidney retinyl esters amount
  Emax: 253%
Model E4, controls vs high dose according to the fitted model, read-out: Maximum response, Kidney retinyl esters concentration
  Emax: 256%
Model E4, controls vs high dose according to the fitted model, read-out: Maximum response, Liver retinol concentration
  Emax: -44.6%
Model E4, controls vs high dose according to the fitted model, read-out: Maximum response, Liver retinyl esters concentration
  Emax: -63.4%
females
  Liver 9c-4o-13,14-dh-RA concentration, max. decrease: 78%
  Liver retinol concentration, max. decrease: 43%
[1]
  Dose response, Kidney All-trans RA: D, T
  Dose response, Kidney Retinol: D, T
  Dose response, Liver 9-cis-4o-13,14-dh RA: D, T
  Dose response, Liver Retinyl esters: D, T
  Kidney All-trans RA, Dose response: D
  Kidney Retinol, Dose response: D, T
  Liver 9-cis-4o-13,14-dh-RA, Dose response: D, T
  Liver Retinol, Dose response: D, T
  Liver Retinyl esters, Dose response: D, T
  Serum Retinol, Dose response: D
females, total dose 3 mg/kg bw
  Kidney All-trans RA: 19.8 pmol
  Kidney Retinol: 8.72 nmol
  Kidney Retinyl esters: 0.77 nmol
  Liver 9-cis-4o-13,14-dh RA: 887 pmol
  Liver All-trans RA: 267 pmol
  Liver Retinol: 0.26 µmol
  Liver Retinyl esters: 11.1 µmol
[2]
  Kidney All-trans RA: 18.2 pmol
  Kidney Retinol: 8.07 nmol
  Kidney Retinyl esters: 0.88 nmol
  Liver 9-cis-4o-13,14-dh RA: 665 pmol
  Liver All-trans RA: 239 pmol
  Liver Retinol: 0.23 µmol
  Liver Retinyl esters: 9.31 µmol
[3]
  Kidney All-trans RA: 19.9 pmol
  Kidney Retinol: 9.25 nmol
  Kidney Retinyl esters: 0.82 nmol
  Liver 9-cis-4o-13,14-dh RA: 691 pmol
  Liver All-trans RA: 231 pmol
  Liver Retinol: 0.25 µmol
  Liver Retinyl esters: 8.81 µmol
[4]
  Kidney All-trans RA: 20.6 pmol
  Kidney Retinol: 8.42 nmol
  Kidney Retinyl esters: 0.71 nmol
  Liver 9-cis-4o-13,14-dh RA: 543 pmol
  Liver All-trans RA: 252 pmol
  Liver Retinol: 0.24 µmol
  Liver Retinyl esters: 9.73 µmol
[5]
  Kidney All-trans RA: 20.2 pmol
  Kidney Retinol: 8.45 nmol
  Kidney Retinyl esters: 0.73 nmol
  Liver 9-cis-4o-13,14-dh RA: 357 pmol
  Liver All-trans RA: 332 pmol
  Liver Retinol: 0.24 µmol
  Liver Retinyl esters: 8.90 µmol
[6]
  Kidney All-trans RA: 21.5 pmol
  Kidney Retinol: 8.95 nmol
  Kidney Retinyl esters: 0.74 nmol
  Liver 9-cis-4o-13,14-dh RA: 226 pmol
  Liver All-trans RA: 296 pmol
  Liver Retinol: 0.24 µmol
  Liver Retinyl esters: 8.28 µmol
[7]
  Kidney All-trans RA: 22.0 pmol
  Kidney Retinol: 10.3 nmol
  Kidney Retinyl esters: 0.75 nmol
  Liver 9-cis-4o-13,14-dh RA: 261 pmol
  Liver All-trans RA: 289 pmol
  Liver Retinol: 0.21 µmol
  Liver Retinyl esters: 6.90 µmol
females, CES 5%, total dose based
  Kidney all-trans RA amount, CED: 494 mg/kg bw
